Measured values from PubChem BioAssay (NCI).
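Tested at 5 concentrations; 48 h exposure; 96-well plates; endpoints linearly interpolated, else capped at highest concentration. TGI is the concentration that stops growth completely.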

How the values were obtained:
Experiment in all cases: DTP human tumour cell line panel, 48 h
LOX IMVI melanoma = tested on: LOX IMVI melanoma
HS 578T breast = tested on: HS 578T breast
HCT-15 colon = tested on: HCT-15 colon
U251 CNS = tested on: U251 CNS
A549 NSCLC = tested on: A549 NSCLC
NCI-H522 lung = tested on: NCI-H522 lung
MDA-MB-231 breast = tested on: MDA-MB-231 breast
ACHN renal = tested on: ACHN renal
A498 renal = tested on: A498 renal
DU-145 prostate = tested on: DU-145 prostate
SR leukemia = tested on: SR leukemia
HCT-116 colon = tested on: HCT-116 colon
NCI-H460 lung = tested on: NCI-H460 lung
MOLT-4 leukemia = tested on: MOLT-4 leukemia
NCI-H23 lung = tested on: NCI-H23 lung
SW-620 colon = tested on: SW-620 colon
RPMI-8226 leukemia = tested on: RPMI-8226 leukemia
NCI/ADR-RES ovarian = tested on: NCI/ADR-RES ovarian
SF-539 CNS = tested on: SF-539 CNS
CAKI-1 renal = tested on: CAKI-1 renal
MALME-3M melanoma = tested on: MALME-3M melanoma
SK-MEL-28 melanoma = tested on: SK-MEL-28 melanoma
SF-295 CNS = tested on: SF-295 CNS
OVCAR-5 ovarian = tested on: OVCAR-5 ovarian
HT29 colon = tested on: HT29 colon
CCRF-CEM leukemia = tested on: CCRF-CEM leukemia
OVCAR-3 ovarian = tested on: OVCAR-3 ovarian
SF-268 CNS = tested on: SF-268 CNS
EKVX NSCLC = tested on: EKVX NSCLC
COLO 205 colon = tested on: COLO 205 colon
UACC-62 melanoma = tested on: UACC-62 melanoma
BT-549 breast = tested on: BT-549 breast
HCC-2998 colon = tested on: HCC-2998 colon
SN12C renal = tested on: SN12C renal
SNB-19 CNS = tested on: SNB-19 CNS
MCF7 breast = tested on: MCF7 breast
SNB-75 CNS = tested on: SNB-75 CNS
PC-3 prostate = tested on: PC-3 prostate
T-47D breast = tested on: T-47D breast
SK-OV-3 ovarian = tested on: SK-OV-3 ovarian
TK-10 renal = tested on: TK-10 renal
M14 melanoma = tested on: M14 melanoma
HL-60(TB) leukemia = tested on: HL-60(TB) leukemia
SK-MEL-5 melanoma = tested on: SK-MEL-5 melanoma
IGROV1 ovarian = tested on: IGROV1 ovarian
786-0 renal = tested on: 786-0 renal
MDA-MB-435 = tested on: MDA-MB-435
HOP-92 NSCLC = tested on: HOP-92 NSCLC
UACC-257 melanoma = tested on: UACC-257 melanoma
OVCAR-8 ovarian = tested on: OVCAR-8 ovarian
HOP-62 NSCLC = tested on: HOP-62 NSCLC
OVCAR-4 ovarian = tested on: OVCAR-4 ovarian
K-562 leukemia = tested on: K-562 leukemia
SK-MEL-2 melanoma = tested on: SK-MEL-2 melanoma
NCI-H226 lung = tested on: NCI-H226 lung
KM12 colon = tested on: KM12 colon
MDA-N = tested on: MDA-N
RXF 393 renal = tested on: RXF 393 renal
UO-31 renal = tested on: UO-31 renal

Question: Which results are given for `COC1=C(OC)C23CCc4ccc(OC)c(O)c4C2(CCN3)CC1=O` (stereo unspecified)?
Answer: TGI (LOX IMVI melanoma): > 100 µM; TGI (HS 578T breast): > 100 µM; TGI (HCT-15 colon): > 100 µM; TGI (U251 CNS): > 100 µM; TGI (A549 NSCLC): > 100 µM; TGI (NCI-H522 lung): > 100 µM; TGI (MDA-MB-231 breast): > 100 µM; TGI (ACHN renal): > 100 µM; TGI (A498 renal): > 100 µM; TGI (DU-145 prostate): > 100 µM; TGI (SR leukemia): > 100 µM; TGI (HCT-116 colon): > 100 µM; TGI (NCI-H460 lung): > 100 µM; TGI (MOLT-4 leukemia): > 100 µM; TGI (NCI-H23 lung): > 100 µM; TGI (SW-620 colon): > 100 µM; TGI (RPMI-8226 leukemia): > 100 µM; TGI (NCI/ADR-RES ovarian): > 100 µM; TGI (SF-539 CNS): > 100 µM; TGI (CAKI-1 renal): > 100 µM; TGI (MALME-3M melanoma): > 100 µM; TGI (SK-MEL-28 melanoma): > 100 µM; TGI (SF-295 CNS): > 100 µM; TGI (OVCAR-5 ovarian): > 100 µM; TGI (HT29 colon): > 100 µM; TGI (CCRF-CEM leukemia): > 100 µM; TGI (OVCAR-3 ovarian): > 100 µM; TGI (SF-268 CNS): > 100 µM; TGI (EKVX NSCLC): > 100 µM; TGI (COLO 205 colon): > 100 µM; TGI (UACC-62 melanoma): > 100 µM; TGI (BT-549 breast): > 100 µM; TGI (HCC-2998 colon): > 100 µM; TGI (SN12C renal): > 100 µM; TGI (SNB-19 CNS): > 100 µM; TGI (MCF7 breast): > 100 µM; TGI (SNB-75 CNS): > 100 µM; TGI (PC-3 prostate): > 100 µM; TGI (T-47D breast): > 100 µM; TGI (SK-OV-3 ovarian): > 100 µM; TGI (TK-10 renal): > 100 µM; TGI (M14 melanoma): > 100 µM; TGI (HL-60(TB) leukemia): > 100 µM; TGI (SK-MEL-5 melanoma): > 100 µM; TGI (IGROV1 ovarian): > 100 µM; TGI (786-0 renal): > 100 µM; TGI (MDA-MB-435): > 100 µM; TGI (HOP-92 NSCLC): > 100 µM; TGI (UACC-257 melanoma): > 100 µM; TGI (OVCAR-8 ovarian): > 100 µM; TGI (HOP-62 NSCLC): > 100 µM; TGI (OVCAR-4 ovarian): > 100 µM; TGI (K-562 leukemia): > 100 µM; TGI (SK-MEL-2 melanoma): > 100 µM; TGI (NCI-H226 lung): > 100 µM; TGI (KM12 colon): > 100 µM; TGI (MDA-N): > 100 µM; TGI (RXF 393 renal): > 100 µM

Question: What does the source list for `Clc1ccc2oc(CCC3CCCCC3)nc2c1`?
Answer: TGI (LOX IMVI melanoma): 25.2 µM; TGI (UO-31 renal): 81.8 µM; TGI (HS 578T breast): > 100 µM; TGI (HCT-15 colon): 69.2 µM; TGI (U251 CNS): 43.2 µM; TGI (A549 NSCLC): > 100 µM; TGI (NCI-H522 lung): 61.2 µM; TGI (MDA-MB-231 breast): > 100 µM; TGI (ACHN renal): > 100 µM; TGI (A498 renal): 82.3 µM; TGI (DU-145 prostate): > 100 µM; TGI (SR leukemia): 61.5 µM; TGI (HCT-116 colon): > 100 µM; TGI (NCI-H460 lung): 59.6 µM; TGI (MOLT-4 leukemia): 60.7 µM; TGI (NCI-H23 lung): 98.5 µM; TGI (SW-620 colon): > 100 µM; TGI (RPMI-8226 leukemia): > 100 µM; TGI (NCI/ADR-RES ovarian): > 100 µM; TGI (SF-539 CNS): > 100 µM; TGI (CAKI-1 renal): 77.7 µM; TGI (MALME-3M melanoma): > 100 µM; TGI (SK-MEL-28 melanoma): > 100 µM; TGI (SF-295 CNS): 56.2 µM; TGI (OVCAR-5 ovarian): > 100 µM; TGI (HT29 colon): 83.8 µM; TGI (CCRF-CEM leukemia): 70.8 µM; TGI (OVCAR-3 ovarian): 36.1 µM; TGI (SF-268 CNS): > 100 µM; TGI (EKVX NSCLC): 82.9 µM; TGI (COLO 205 colon): 50.2 µM; TGI (UACC-62 melanoma): > 100 µM; TGI (BT-549 breast): > 100 µM; TGI (HCC-2998 colon): 48.3 µM; TGI (SN12C renal): 48.6 µM; TGI (SNB-19 CNS): > 100 µM; TGI (MCF7 breast): 51.3 µM; TGI (SNB-75 CNS): 58.1 µM; TGI (PC-3 prostate): > 100 µM; TGI (T-47D breast): 81.7 µM; TGI (SK-OV-3 ovarian): 62.3 µM; TGI (TK-10 renal): > 100 µM; TGI (M14 melanoma): > 100 µM; TGI (HL-60(TB) leukemia): 42.6 µM; TGI (SK-MEL-5 melanoma): 35 µM; TGI (786-0 renal): > 100 µM; TGI (MDA-MB-435): 94.4 µM; TGI (HOP-92 NSCLC): 84.4 µM; TGI (UACC-257 melanoma): 79.3 µM; TGI (OVCAR-8 ovarian): > 100 µM; TGI (HOP-62 NSCLC): 72.8 µM; TGI (OVCAR-4 ovarian): > 100 µM; TGI (K-562 leukemia): > 100 µM; TGI (SK-MEL-2 melanoma): 39.1 µM; TGI (NCI-H226 lung): 57.1 µM; TGI (KM12 colon): 70.7 µM; TGI (MDA-N): > 100 µM; TGI (RXF 393 renal): 45.1 µM
